Experimental data reported in patent publication US20240270810A1, “PREPARATION AND APPLICATION OF POLYPEPTIDE” (GUANGDONG RAYNOVENT BIOTECH CO., LTD., priority 2021, published 2024).
*1 amine or outer side, *2 acyl side, *3 side chain or, on linkers, in order; H or OH if unused. Where a SMILES comes first, the peptide text is derived from it. Bridges are numbered along the chain shown (N, C = ends). [ ]: non-standard residue; d: D form. X1 = O=C(O)CCCCCCCCCCCCCCCCCCC(=O)N[C@@H](CCC(=O)NCCOCCOCC(=O)NCCOCCOCC(=O)N[C@@H](CCC(=O)[*:1])C(=O)[*:2])C(=O)O; Aib = CC(C)(N)C(=O)O

How the values were obtained:
GLP-1R = target: T1, GLP-1R (Homo sapiens, UniProt P43220); assay: In vitro GLP-1R agonistic activity test (cAMP kit); type: cell-based; settings: HEK293 host cells
T1 construct: host or cells: HEK293
T1 sequence (P43220 24-463, species assumed): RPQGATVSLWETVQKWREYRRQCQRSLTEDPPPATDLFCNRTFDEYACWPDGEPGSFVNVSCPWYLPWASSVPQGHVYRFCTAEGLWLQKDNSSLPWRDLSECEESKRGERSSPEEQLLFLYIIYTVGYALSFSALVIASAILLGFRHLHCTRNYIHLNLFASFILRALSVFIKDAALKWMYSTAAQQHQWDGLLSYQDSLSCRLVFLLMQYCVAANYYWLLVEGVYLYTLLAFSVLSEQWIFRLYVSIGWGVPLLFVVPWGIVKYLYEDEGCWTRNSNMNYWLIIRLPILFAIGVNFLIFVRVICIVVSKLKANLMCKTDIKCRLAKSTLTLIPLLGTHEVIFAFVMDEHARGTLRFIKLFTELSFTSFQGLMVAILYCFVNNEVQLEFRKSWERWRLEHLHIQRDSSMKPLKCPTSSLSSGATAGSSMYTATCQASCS
Protocol: (§1) The cell lines were constructed by Wuxi […] (Shanghai) Co., Ltd. See details in Table 1 below. [table] [table] The test compounds were diluted at a 4-fold dilution factor in 10 points, starting from an initial concentration of 30 μM. The dilution was carried out by Bravo. • 1) 100 nL of compounds were transferred to an OptiPlate-384 plate by Echo. • 2) The OptiPlate-384 plate was centrifuged at 1000 rpm for 5 s. • 1) A GLP-1R/GIPR cell cryovial was placed in warm water at 37° C. for rapid thawing. • 2) The cell suspension was transferred into a 15 mL Transfer centrifugal tube and rinsed with 10 mL of HBSS gently. • 3) The centrifugal tube was centrifuged at 1000 rpm at room temperature for 1 min. • 4) The supernatant was discarded. • 5) The bottom cells were gently dispersed, then gently rinsed with 10 mL of HBSS, the centrifugal tube was centrifuged to settle the cells, and finally the cells were resuspended in an experimental buffer. • 6) Cell density and viability were measured by Vi-cell. • 7) The GLP-1R/GIPR cells were diluted with the experimental buffer to a concentration of 2.0*10^5/mL. • 8) […] of the diluted cell suspension was transferred into the OptiPlate-384 plate. • 9) Incubation was performed at room temperature for 30 min. • 1) 10 μL of 800 nM gradient diluted cAMP standard was added into the empty wells of the OptiPlate-384 plate. • 2) 10 μL of cAMP assay reagent was added. • 3) The OptiPlate-384 plate was covered with TopSeal-A film and incubated at room temperature for 60 min. The TopSeal-A film was removed, and readout was performed on En Vision.

GIPR = target: T2, GIPR (Homo sapiens, UniProt P48546); assay: In vitro GIPR agonistic activity test (cAMP kit); type: cell-based; settings: CHO host cells
T2 construct: host or cells: CHO
T2 sequence (P48546 22-466): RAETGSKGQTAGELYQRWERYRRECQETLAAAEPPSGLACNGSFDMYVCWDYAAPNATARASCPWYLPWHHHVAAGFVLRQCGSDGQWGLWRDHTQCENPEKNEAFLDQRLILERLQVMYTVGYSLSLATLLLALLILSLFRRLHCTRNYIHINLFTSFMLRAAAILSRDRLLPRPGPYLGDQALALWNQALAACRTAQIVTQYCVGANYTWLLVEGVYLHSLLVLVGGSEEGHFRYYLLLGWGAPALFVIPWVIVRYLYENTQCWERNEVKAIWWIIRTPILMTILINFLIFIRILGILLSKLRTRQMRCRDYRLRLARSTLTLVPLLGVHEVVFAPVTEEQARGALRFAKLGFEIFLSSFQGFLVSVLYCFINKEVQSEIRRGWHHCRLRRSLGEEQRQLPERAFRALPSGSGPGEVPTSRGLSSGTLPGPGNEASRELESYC
Protocol: as §1, with “[table] [table]” left out

| SMILES | EC50 (GLP-1R; without 1% HSA) [nM] | EC50 (GIPR; without 1% HSA) [nM] | EC50 (GLP-1R; with 1% HSA) [nM] | EC50 (GIPR; with 1% HSA) [nM] |
| --- | --- | --- | --- | --- |
| CC[C@H](C)[C@H](NC(=O)[C@H](CC(C)C)NC(=O)[C@H](Cc1c[nH]c2ccccc12)NC(=O)[C@@H](NC(=O)[C@@H](NC(=O)[C@H](Cc1ccccc1)NC(=O)[C@H](C)NC(=O)[C@@H]1CCCCNC(=O)CN(C(=O)COCCOCCNC(=O)COCCOCCNC(=O)CC[C@H](NC(=O)CCCCCCCCCCCCCCCCCCC(=O)O)C(=O)O)CC(=O)NCCCC[C@H](NC(=O)[C@H](CCCCN)NC(=O)[C@H](CC(=O)O)NC(=O)[C@H](CC(C)C)NC(=O)C(C)(C)NC(=O)[C@@H](NC(=O)[C@H](CO)NC(=O)[C@H](Cc2ccc(O)cc2)NC(=O)[C@H](CC(=O)O)NC(=O)[C@H](CO)NC(=O)[C@@H](NC(=O)[C@H](Cc2ccccc2)NC(=O)[C@@H](NC(=O)CNC(=O)[C@H](CCC(=O)O)NC(=O)C(C)(C)NC(=O)[C@@H](N)Cc2ccc(O)cc2)[C@@H](C)O)[C@@H](C)O)[C@@H](C)CC)C(=O)N[C@@H](C)C(=O)N[C@@H](CCC(N)=O)C(=O)N1)C(C)C)[C@@H](C)CC)C(=O)N[C@@H](C)C(=O)NCC(=O)NCC(=O)N1CCC[C@H]1C(=O)N[C@@H](CO)C(=O)N[C@@H](CO)C(=O)NCC(=O)N[C@@H](C)C(=O)N1CCC[C@H]1C(=O)N1CCC[C@H]1C(=O)N1CCC[C@H]1C(=O)N[C@@H](CO)C(N)=O [WX-008] | 0.18 | 2.74 |  |  |
| CC[C@H](C)[C@H](NC(=O)[C@H](CC(C)C)NC(=O)[C@H](Cc1c[nH]c2ccccc12)NC(=O)[C@@H]1CCCCNC(=O)CN(C(=O)COCCOCCNC(=O)COCCOCCNC(=O)CC[C@H](NC(=O)CCCCCCCCCCCCCCCCCCC(=O)O)C(=O)O)CC(=O)NCCCC[C@H](NC(=O)[C@H](CCC(N)=O)NC(=O)[C@H](C)NC(=O)[C@@H](NC(=O)[C@H](CCCCN)NC(=O)[C@H](CC(=O)O)NC(=O)[C@H](CC(C)C)NC(=O)C(C)(C)NC(=O)[C@@H](NC(=O)[C@H](CO)NC(=O)[C@H](Cc2ccc(O)cc2)NC(=O)[C@H](CC(=O)O)NC(=O)[C@H](CO)NC(=O)[C@@H](NC(=O)[C@H](Cc2ccccc2)NC(=O)[C@@H](NC(=O)CNC(=O)[C@H](CCC(=O)O)NC(=O)C(C)(C)NC(=O)[C@@H](N)Cc2ccc(O)cc2)[C@@H](C)O)[C@@H](C)O)[C@@H](C)CC)[C@@H](C)CC)C(=O)N[C@@H](CCC(=O)O)C(=O)N[C@@H](Cc2ccccc2)C(=O)N[C@@H](C(C)C)C(=O)N1)C(=O)N[C@@H](C)C(=O)NCC(=O)NCC(=O)N1CCC[C@H]1C(=O)N[C@@H](CO)C(=O)N[C@@H](CO)C(=O)NCC(=O)N[C@@H](C)C(=O)N1CCC[C@H]1C(=O)N1CCC[C@H]1C(=O)N1CCC[C@H]1C(=O)N[C@@H](CO)C(N)=O [WX-002] | 0.19 | 0.43 | 31.3 | 12.5 |
| CC[C@H](C)[C@H](NC(=O)[C@H](CC(C)C)NC(=O)[C@H](Cc1c[nH]c2ccccc12)NC(=O)[C@H](CCC(=O)O)NC(=O)[C@@H](NC(=O)[C@H](Cc1ccccc1)NC(=O)[C@H](C)NC(=O)[C@@H]1CCCCNC(=O)[C@@H](NC(=O)COCCOCCNC(=O)COCCOCCNC(=O)CC[C@H](NC(=O)CCCCCCCCCCCCCCCCCCC(=O)O)C(=O)O)CCC(=O)NCCCC[C@H](NC(=O)[C@H](CCCCN)NC(=O)[C@H](CC(=O)O)NC(=O)[C@H](CC(C)C)NC(=O)C(C)(C)NC(=O)[C@@H](NC(=O)[C@H](CO)NC(=O)[C@H](Cc2ccc(O)cc2)NC(=O)[C@H](CC(=O)O)NC(=O)[C@H](CO)NC(=O)[C@@H](NC(=O)[C@H](Cc2ccccc2)NC(=O)[C@@H](NC(=O)CNC(=O)[C@H](CCC(=O)O)NC(=O)C(C)(C)NC(=O)[C@@H](N)Cc2ccc(O)cc2)[C@@H](C)O)[C@@H](C)O)[C@@H](C)CC)C(=O)N[C@@H](C)C(=O)N[C@@H](CCC(N)=O)C(=O)N1)C(C)C)C(=O)N[C@@H](C)C(=O)NCC(=O)NCC(=O)N1CCC[C@H]1C(=O)N[C@@H](CO)C(=O)N[C@@H](CO)C(=O)NCC(=O)N[C@@H](C)C(=O)N1CCC[C@H]1C(=O)N1CCC[C@H]1C(=O)N1CCC[C@H]1C(=O)N[C@@H](CO)C(N)=O [WX-011] (H-Y[Aib]EGTFTSDYSI[Aib]LDKKAQKAFVEWLIAGGPSSGAPPPS-NH2; linker 17-20 via X1) | 0.018 | 0.25 |  |  |
| CC[C@H](C)[C@H](NC(=O)[C@H](CC(C)C)NC(=O)[C@H](Cc1c[nH]c2ccccc12)NC(=O)[C@H](CCC(=O)O)NC(=O)[C@@H](NC(=O)[C@H](Cc1ccccc1)NC(=O)[C@H](C)NC(=O)[C@@H]1CCCCNC(=O)CN(C(=O)COCCOCCNC(=O)COCCOCCNC(=O)CC[C@H](NC(=O)CC[C@H](NC(=O)CCCCCCCCCCCCCCCCC(=O)O)C(=O)O)C(=O)O)CC(=O)NCCCC[C@H](NC(=O)[C@H](CCCCN)NC(=O)[C@H](CC(=O)O)NC(=O)[C@H](CC(C)C)NC(=O)C(C)(C)NC(=O)[C@@H](NC(=O)[C@H](CO)NC(=O)[C@H](Cc2ccc(O)cc2)NC(=O)[C@H](CC(=O)O)NC(=O)[C@H](CO)NC(=O)[C@@H](NC(=O)[C@H](Cc2ccccc2)NC(=O)[C@@H](NC(=O)CNC(=O)[C@H](CCC(=O)O)NC(=O)C(C)(C)NC(=O)[C@@H](N)Cc2ccc(O)cc2)[C@@H](C)O)[C@@H](C)O)[C@@H](C)CC)C(=O)N[C@@H](C)C(=O)N[C@@H](CCC(N)=O)C(=O)N1)C(C)C)C(=O)N[C@@H](C)C(=O)NCC(=O)NCC(=O)N1CCC[C@H]1C(=O)N[C@@H](CO)C(=O)N[C@@H](CO)C(=O)NCC(=O)N[C@@H](C)C(=O)N1CCC[C@H]1C(=O)N1CCC[C@H]1C(=O)N1CCC[C@H]1C(=O)N[C@@H](CO)C(N)=O [WX-014] | 0.071 | 0.24 |  |  |
| CC[C@H](C)[C@H](NC(=O)[C@H](CC(C)C)NC(=O)[C@H](Cc1c[nH]c2ccccc12)NC(=O)[C@H](CCC(=O)O)NC(=O)[C@@H](NC(=O)[C@H](Cc1ccccc1)NC(=O)[C@H](C)NC(=O)[C@@H]1CCCCNC(=O)CN(C(=O)COCCOCCNC(=O)COCCOCCNC(=O)CC[C@H](NC(=O)CCCCCCCCCCCCCCCCC(=O)O)C(=O)O)CC(=O)NCCCC[C@H](NC(=O)[C@H](CCCCN)NC(=O)[C@H](CC(=O)O)NC(=O)[C@H](CC(C)C)NC(=O)C(C)(C)NC(=O)[C@@H](NC(=O)[C@H](CO)NC(=O)[C@H](Cc2ccc(O)cc2)NC(=O)[C@H](CC(=O)O)NC(=O)[C@H](CO)NC(=O)[C@@H](NC(=O)[C@H](Cc2ccccc2)NC(=O)[C@@H](NC(=O)CNC(=O)[C@H](CCC(=O)O)NC(=O)C(C)(C)NC(=O)[C@@H](N)Cc2ccc(O)cc2)[C@@H](C)O)[C@@H](C)O)[C@@H](C)CC)C(=O)N[C@@H](C)C(=O)N[C@@H](CCC(N)=O)C(=O)N1)C(C)C)C(=O)N[C@@H](C)C(=O)NCC(=O)NCC(=O)N1CCC[C@H]1C(=O)N[C@@H](CO)C(=O)N[C@@H](CO)C(=O)NCC(=O)N[C@@H](C)C(=O)N1CCC[C@H]1C(=O)N1CCC[C@H]1C(=O)N1CCC[C@H]1C(=O)N[C@@H](CO)C(N)=O [WX-012] | 0.024 | 0.17 |  |  |
